The source made the active and inactive calls.
Legend:
[1] = ADAM10 protease inhibitors, dose response, selectivity assay for ADAM17 exosite inhibitor project, biochemical, FRET peptide substrate, recombinant human ADAM10 (AID 743259);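 further: ADAM10 enzyme cleaving a FRET peptide substrate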
[2] = molecular target: Disintegrin and metalloproteinase domain-containing protein 17 (Homo sapiens, UniProt P78536); experiment: exosite inhibitors of ADAM17, dose response, biochemical (AID 743260)
[3] = Counterscreen for inhibitors of Trypanosoma brucei methionyl tRNA synthetase (MetRS): Luminescence-based cell-based high throughput dose response assay to identify compounds that are cytotoxic to Jurkat human T lymphocyte cells.; format: functional
[4] = molecular target: T1, Methionyl-tRNA synthetase, putative (Trypanosoma brucei brucei, UniProt Q38C91); format: functional, Trypanosoma brucei brucei strain 927/4 GUTat10.1
T1 sequence (Q38C91 whole entry): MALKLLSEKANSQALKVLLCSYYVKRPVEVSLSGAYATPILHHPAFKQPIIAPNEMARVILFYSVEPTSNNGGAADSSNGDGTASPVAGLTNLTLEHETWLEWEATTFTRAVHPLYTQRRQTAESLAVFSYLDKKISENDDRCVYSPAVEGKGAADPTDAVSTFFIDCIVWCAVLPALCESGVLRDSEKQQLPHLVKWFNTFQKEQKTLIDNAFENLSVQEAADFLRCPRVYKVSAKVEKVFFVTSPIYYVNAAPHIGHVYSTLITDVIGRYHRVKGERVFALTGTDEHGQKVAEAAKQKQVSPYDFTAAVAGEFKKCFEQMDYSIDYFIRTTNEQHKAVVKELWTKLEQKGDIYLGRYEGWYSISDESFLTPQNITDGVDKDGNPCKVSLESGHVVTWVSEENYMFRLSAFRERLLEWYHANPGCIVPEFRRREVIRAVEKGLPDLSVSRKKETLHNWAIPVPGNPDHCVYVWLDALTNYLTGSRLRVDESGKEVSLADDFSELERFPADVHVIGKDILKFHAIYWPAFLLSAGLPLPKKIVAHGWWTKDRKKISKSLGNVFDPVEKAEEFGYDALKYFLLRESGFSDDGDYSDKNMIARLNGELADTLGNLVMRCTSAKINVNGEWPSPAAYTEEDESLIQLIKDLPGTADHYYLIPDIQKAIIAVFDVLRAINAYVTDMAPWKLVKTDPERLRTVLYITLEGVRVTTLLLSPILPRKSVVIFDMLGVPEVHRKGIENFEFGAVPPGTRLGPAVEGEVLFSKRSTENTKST

[5] = molecular target: T1, Methionyl-tRNA synthetase, putative; format: functional, Trypanosoma brucei brucei strain 927/4 GUTat10.1; remark: listed apart in the source
[6] = ZM109 Env clade C HIV-1 fusion inhibitors, dose response, HeLa effector, CEM target cells, luciferase, cherry-pick (AID 652058); format: functional, cell-based
[7] = CEM21 lymphoblast cell cytotoxicity, dose response, cytotoxicity control for viral fusion inhibitor project, CellTiter-Glo luminescence, cherry-picked (AID 652042); format: functional, cell-based;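 further: potency for signal decrease meaning cytotoxicity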
[8] = inhibitors of HIV Env-driven cell fusion, dose response, cherry-pick (AID 652057); format: functional, cell-based
[9] = off-target signal loss in HeLa-CEM21 co-culture – HeLa F-luc CTL cells, cherry-picked, counter-screen for HIV-1 Env fusion inhibitor project, dose response (AID 652040); format: functional, cell-based;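 further: potency for signal decrease marking cytotoxic or nonspecific inhibition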
[10] = inhibitors of clade B AD8 Env fusion, dose response, cell-based, cherry-pick (AID 652062); format: functional;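 further: luciferase signal from cell-cell fusion driven by HIV-1 clade B AD8 Env; potency is for inhibitors of fusion seen as a drop in luminescence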
[11] = Luminescence Cell-Based Dose Retest to Confirm Inhibitors of Cancer Stem Cells. [Related pubchem assays (depositor defined):AID2717, AID2721]; format: functional; details: Homo sapiens
Protein skinhead-1 = molecular target: T2, Protein skinhead-1 (Caenorhabditis elegans, UniProt P34707); format: functional
T2 sequence (P34707 whole entry): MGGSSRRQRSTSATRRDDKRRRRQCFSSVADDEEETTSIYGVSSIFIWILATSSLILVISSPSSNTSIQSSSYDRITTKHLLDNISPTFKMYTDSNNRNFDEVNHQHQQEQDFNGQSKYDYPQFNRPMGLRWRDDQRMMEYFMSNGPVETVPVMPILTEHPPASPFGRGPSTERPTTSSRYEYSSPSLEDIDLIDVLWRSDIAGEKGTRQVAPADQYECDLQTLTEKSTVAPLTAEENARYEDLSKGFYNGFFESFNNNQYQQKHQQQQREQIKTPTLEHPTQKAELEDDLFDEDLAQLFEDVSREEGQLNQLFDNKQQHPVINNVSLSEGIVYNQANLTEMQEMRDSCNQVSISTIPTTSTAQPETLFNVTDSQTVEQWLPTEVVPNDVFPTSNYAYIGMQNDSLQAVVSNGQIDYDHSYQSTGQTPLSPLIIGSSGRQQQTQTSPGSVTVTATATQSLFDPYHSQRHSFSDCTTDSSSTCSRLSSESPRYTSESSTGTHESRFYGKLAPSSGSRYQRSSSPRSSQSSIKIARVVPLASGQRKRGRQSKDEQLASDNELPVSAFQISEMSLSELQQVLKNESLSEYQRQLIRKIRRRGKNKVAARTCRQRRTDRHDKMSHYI

[12] = inhibitors of intracellular T. cruzi replication, confirmation, NIH3T3 host cells, beta-gal luminescence (AID 2044); format: functional, cell-based;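 further: intracellular parasites grown in NIH/3T3 mouse fibroblasts as host cells; luminescent beta-galactosidase reporter signal from transgenic T. cruzi replicating inside host cells; inhibitors lower the luminescence signal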
[13] = cytotoxicity toward NIH3T3 fibroblasts, dose response, counter-screen, cell-based, ATP luminescence, mouse fibroblasts (AID 2010); format: functional;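 further: cells exposed to compound for about 90 hours before reading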
[14] = molecular target: T3, Microphthalmia-associated transcription factor (Homo sapiens, UniProt O75030); experiment: TRPM1 promoter luciferase signal decrease, dose response, MITF inhibitor project, cell-based, SK-MEL-5, cherry-picked, set 3 (AID 493073); format: functional
T3 sequence (O75030 whole entry): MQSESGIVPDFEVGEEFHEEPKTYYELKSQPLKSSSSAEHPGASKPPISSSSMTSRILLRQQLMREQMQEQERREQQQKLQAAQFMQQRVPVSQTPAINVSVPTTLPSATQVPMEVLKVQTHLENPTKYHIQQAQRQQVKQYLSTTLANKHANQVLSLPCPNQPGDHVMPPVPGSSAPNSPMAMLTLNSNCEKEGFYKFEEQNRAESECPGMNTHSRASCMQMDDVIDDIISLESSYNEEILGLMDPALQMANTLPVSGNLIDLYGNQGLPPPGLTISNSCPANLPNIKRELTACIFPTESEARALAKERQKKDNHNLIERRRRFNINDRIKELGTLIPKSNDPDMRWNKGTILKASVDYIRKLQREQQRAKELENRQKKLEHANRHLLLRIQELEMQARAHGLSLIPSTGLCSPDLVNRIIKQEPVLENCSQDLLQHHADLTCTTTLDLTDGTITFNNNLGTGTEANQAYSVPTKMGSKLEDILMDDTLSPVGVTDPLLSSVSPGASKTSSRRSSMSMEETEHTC

[15] = inhibitors of firefly luciferase expression or activity, dose response, H4 neuroglioma cells, luminescence (AID 1990); format: functional, cell-based
[16] = cytotoxicity in HEK-293T cells, dose response, cytotoxicity control for TCR NF-kB inhibitor project, luminescence, T-cell screen hits (AID 489026); format: functional, cell-based;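 further: cells exposed to compound about 14 hours before the viability readout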
[17] = Luminescence Cell-Based Dose Response HTS to Identify Inhibitors of 5'UTR Stem-Loop Driven Prion Protein mRNA Translation in H4 Neuroglioblastoma Cells. [Related pubchem assays: 1827 (Project Summary), 1813 (Primary HTS)]; format: functional
H9c2 = experiment: cells; format: functional, cell-based; details: Rattus norvegicus, H9c2, Myocardium;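 further: confirmatory concentration-response retest of ultra-high-throughput screening hits for modulation of myocardial damage; cell death induced by hydrogen peroxide oxidative stress; compound pretreatment for 60 min then peroxide exposure for 2 h; potency is for protecting the cells against peroxide damage rather than for killing them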
[18] = inhibitors of SNCA 5'UTR-driven reporter translation, confirmation, H4 neuroglioma cells, luminescence (AID 1988); format: functional, cell-based
[19] = intracellular Trypanosoma cruzi inhibitors in host cells – cell-based, plate reader, cherry-pick samples, set 3, dose response (AID 651818); format: functional;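 further: compounds incubated with infected cells for about four days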
[20] = molecular target: T4, DNA repair and recombination protein RAD54-like (Homo sapiens, UniProt Q92698); experiment: inhibitors of human RAD54 branch migration, confirmation, biochemical, fluorescence, cherry-picked samples, dose series (AID 651657); format: functional
T4 sequence (Q92698 whole entry): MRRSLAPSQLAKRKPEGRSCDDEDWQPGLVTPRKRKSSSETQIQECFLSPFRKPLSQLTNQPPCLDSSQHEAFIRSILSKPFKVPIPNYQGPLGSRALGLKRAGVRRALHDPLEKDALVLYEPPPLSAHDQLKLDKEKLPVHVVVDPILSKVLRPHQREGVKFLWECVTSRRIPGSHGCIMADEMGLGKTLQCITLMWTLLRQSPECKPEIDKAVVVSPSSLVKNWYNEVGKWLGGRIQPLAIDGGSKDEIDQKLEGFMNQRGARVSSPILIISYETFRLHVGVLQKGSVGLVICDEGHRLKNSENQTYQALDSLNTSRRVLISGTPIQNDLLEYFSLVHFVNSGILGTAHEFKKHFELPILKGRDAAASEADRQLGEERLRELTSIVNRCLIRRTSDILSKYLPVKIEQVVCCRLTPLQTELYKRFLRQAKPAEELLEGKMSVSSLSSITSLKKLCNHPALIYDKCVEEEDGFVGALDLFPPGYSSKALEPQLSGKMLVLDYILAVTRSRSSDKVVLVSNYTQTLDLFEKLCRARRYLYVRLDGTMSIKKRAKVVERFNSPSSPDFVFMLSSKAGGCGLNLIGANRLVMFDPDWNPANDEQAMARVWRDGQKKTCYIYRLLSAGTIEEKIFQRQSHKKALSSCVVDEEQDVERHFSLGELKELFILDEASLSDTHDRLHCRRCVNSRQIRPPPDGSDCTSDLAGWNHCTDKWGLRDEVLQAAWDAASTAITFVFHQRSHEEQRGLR

[21] = growth suppression of beta-catenin-knockout colon cells, dose response, cell-based, HCT116, human colon tumor (AID 1045); format: functional;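 further: HCT116 colon tumor cells with beta catenin knocked out; cells exposed to compound for 60 hours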
[22] = growth suppression of PTEN-null colon cells, dose response, cell-based, HCT116 PTEN knockout (AID 1047); format: functional;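 further: HCT116 colon tumor cells with PTEN knocked out; cells exposed to compound for 60 hours before readout; potency for loss of cell viability measured by luminescence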
[23] = miR-122 activators in hepatoma reporter cells, dose response, cell-based, Huh7 psiCHECK-miR122, Renilla luciferase, cherry-picked (AID 651956); format: functional;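 further: huh7 hepatoma cells stably carrying a psiCHECK-2 miR-122 sensor plasmid; renilla luciferase signal reporting endogenous miR-122 activity after 48 h compound exposure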

Sequence of Disintegrin and metalloproteinase domain-containing protein 17 (P78536 whole entry, the tested form may be a part): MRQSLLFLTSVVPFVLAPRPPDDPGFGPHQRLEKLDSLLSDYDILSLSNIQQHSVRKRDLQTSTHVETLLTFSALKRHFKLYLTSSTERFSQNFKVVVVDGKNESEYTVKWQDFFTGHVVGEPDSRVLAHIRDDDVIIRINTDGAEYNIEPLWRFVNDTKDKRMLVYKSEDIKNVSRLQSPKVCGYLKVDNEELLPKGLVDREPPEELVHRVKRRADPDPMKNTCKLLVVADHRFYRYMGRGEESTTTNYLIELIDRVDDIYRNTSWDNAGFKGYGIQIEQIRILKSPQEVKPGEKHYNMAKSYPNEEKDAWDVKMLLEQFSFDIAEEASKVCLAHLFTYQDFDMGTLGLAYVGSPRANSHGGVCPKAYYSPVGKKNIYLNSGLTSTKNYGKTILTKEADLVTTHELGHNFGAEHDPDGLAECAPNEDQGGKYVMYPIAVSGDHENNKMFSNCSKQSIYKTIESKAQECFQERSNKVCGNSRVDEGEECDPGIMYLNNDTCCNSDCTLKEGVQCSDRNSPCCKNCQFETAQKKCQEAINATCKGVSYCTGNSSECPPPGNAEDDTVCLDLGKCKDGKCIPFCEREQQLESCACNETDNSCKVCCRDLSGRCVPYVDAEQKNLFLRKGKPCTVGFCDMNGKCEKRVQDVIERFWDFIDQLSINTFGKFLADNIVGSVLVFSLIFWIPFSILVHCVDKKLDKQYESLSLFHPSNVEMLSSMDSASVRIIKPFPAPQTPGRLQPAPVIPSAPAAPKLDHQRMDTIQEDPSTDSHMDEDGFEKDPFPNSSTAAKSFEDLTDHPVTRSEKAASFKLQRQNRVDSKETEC

Cc1cccc(COc2ccccc2C(=O)N(C)CC(=O)Nc2cccc(F)c2)c1
IC50 [1]: 25.5 µM (inactive)
IC50 [2]: > 69.5 µM (inactive)

O=C(NCCCCc1ccccc1)Nc1ccc(F)cc1
IC50 [3]: 83.4 µM (inactive)
IC50 [4]: 119 µM (inactive)
IC50 [5]: 44.4 µM (inactive)

CC(C)C[C@H](CO)N(Cc1ccccc1)S(=O)(=O)N(Cc1ccccc1)[C@@H](CO)CC(C)C
AC50 [6]: 3.38 µM (active)
AC50 [7]: 9.89 µM (active)
AC50 [8]: 2.8 µM (active)
AC50 [9]: 12.4 µM (active)
AC50 [10]: 8.16 µM (active)
AC50 [11]: 3.47 µM (active)

Cc1ccc(/N=C2\C(Cl)=C(O)OC2OC(=O)c2ccc(C)cc2)cc1 (stereo unspecified)
IC50 [1]: > 7.73 µM (active)
IC50 [2]: > 69.5 µM (inactive)

CN(C)S(=O)(=O)c1cccc(NC(=O)c2ccc(-n3cncn3)c([N+](=O)[O-])c2)c1
IC50 [3]: 83.3 µM (inactive)
IC50 [4]: 9.02 µM (active)
IC50 [5]: 4.49 µM (active)

COc1ccc(NC(=O)c2ccc3c(c2)OCO3)cc1Cl
IC50 (Protein skinhead-1): > 100 µM (inactive)

CCN(CC)S(=O)(=O)c1cc(NC(=O)Cc2ccc(S(=O)(=O)N3CCOCC3)s2)ccc1Cl
IC50 [1]: 11.4 µM (inactive)
IC50 [2]: > 69.5 µM (inactive)

CCn1c(/C=C/N(C)c2ccccc2)[n+](CC)c2cc(Cl)ccc21
EC50 [12]: 0.286 µM (active)
EC50 [13]: 21.5 µM (active)
AC50 [6]: 59.3 µM (active)
AC50 [7]: 35.5 µM (active)
AC50 [14]: 6.86 µM (active)
AC50 [10]: 9.72 µM (active)

O=C(NC1CCCCN(Cc2cccc(Cl)c2)C1=O)c1ccc(COc2ccccc2)cc1 (stereo unspecified)
IC50 [1]: 20.7 µM (inactive)
IC50 [2]: > 69.5 µM (inactive)

Cc1cccc(C)c1N(CC(=O)Nc1cccc(N(C)S(C)(=O)=O)c1)S(C)(=O)=O
IC50 (Protein skinhead-1): > 100 µM (inactive)

CCOc1ccccc1N1CC(=O)C(c2nc3ccccc3s2)=C1N
EC50 [15]: 6.86 µM (inconclusive)
IC50 [16]: 44.6 µM (inactive)
EC50 [17]: 10.1 µM (active)
IC50 (H9c2): > 79 µM (inactive)
EC50 [18]: 4.59 µM (active)

C[C@@H]1CN([C@H](C)CO)C(=O)c2cc(NC(=O)NC3CCCCC3)ccc2O[C@H]1CN(C)Cc1ccc(Oc2ccccc2)cc1
AC50 [19]: 6.06 µM (active)

COc1ccc(C(=O)Nc2ccc3nc(N4CCN(C)CC4)cc(C)c3c2)c(OC)c1
AC50 [20]: 32.9 µM (active)

C[C@@H]1CN([C@H](C)CO)C(=O)c2cccc(NC(=O)c3ccc(-c4nccs4)cc3)c2O[C@@H]1CN(C)Cc1ccc(C(=O)Nc2ccccc2N)cc1
AC50 [19]: 1.69 µM (active)

O=C(OC(C(=O)c1c[nH]c2ccccc12)c1ccccc1)c1cnccn1 (stereo unspecified)
IC50 [3]: 83.3 µM (inactive)
IC50 [4]: 59.3 µM (inactive)
IC50 [5]: 32.3 µM (inactive)

Cc1noc(C)c1S(=O)(=O)Nc1ccc2c(c1)CC(=O)N([C@H](C)CO)C[C@@H](C)[C@@H](CN(C)Cc1ccc(Oc3ccccc3)cc1)O2
AC50 [19]: 5.85 µM (active)

c1coc(CNc2c3c(nc4ccccc24)CCC3)c1
EC50 [12]: 2.41 µM (active)
EC50 [13]: > 60 µM (not active)
AC50 [7]: 65 µM (active)
EC50 [21]: 27.1 µM (active)
EC50 [22]: 22.5 µM (active)
AC50 [10]: 32.9 µM (active)

CN(c1ccccc1)c1nc2ccsc2c(=O)s1
IC50 (Protein skinhead-1): > 100 µM (inactive)

CC(CCCN1CCCC1)Nc1ccnc2cc(Cl)ccc12 (stereo unspecified) [Chloroquine-pyrolidinyl]
AC50 [20]: 35.7 µM (active)

C[C@@H]1CN([C@@H](C)CO)S(=O)(=O)c2ccc(/C=C/c3ccccc3)cc2O[C@@H]1CN(C)C(=O)c1cccnc1
AC50 [23]: 3.93 µM (active)

CCCn1c(O)nnc1SCC(=O)c1ccc2c(c1)OCCO2
IC50 (Protein skinhead-1): > 100 µM (inactive)

COc1ccc(S(=O)(=O)N(C)C[C@H]2Oc3c(NC(=O)Nc4ccc(C(F)(F)F)cc4)cccc3C(=O)N([C@@H](C)CO)C[C@@H]2C)cc1
AC50 [19]: 5.69 µM (active)

— ChEMBL document CHEMBL1201862, “PubChem BioAssay data set” (2004)
